Experimental data reported in patent US8921397B2, “Benzofurane-piperidine compounds” (Hoffmann-La Roche Inc., priority 2011, dated 2014).

What was measured:
human D2 receptor = human D2 receptor (Homo sapiens (Human), UniProt P14416); assay: Radioligand binding ([3H]-spiperone) to human D2 receptor, HEK293 EBNA membranes; conditions: HEK293 EBNA cells expressing human D2 receptor
Method in brief: (§1)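 Membranes from transiently transfected HEK293 EBNA cells (~7.5 μg protein/well) were incubated 1 h at RT with [3H]-spiperone (~0.7 nM for D2, 0.5 nM for D3) and ten compound concentrations (10 μM–0.1 nM) in Tris/NaCl/MgCl2/CaCl2 buffer pH 7.4. Filtration and scintillation counting, nonspecific with 10 μM spiperone; Ki via Cheng-Prusoff.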

human 5-HT2A receptor = human 5-HT2A receptor (Homo sapiens (Human), UniProt P28223); assay: Radioligand binding ([3H]-ketanserin) to human 5-HT2A receptor, HEK293 EBNA membranes; conditions: HEK293 EBNA cells expressing human 5-HT2A receptor
Method in brief: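 Membranes from HEK293 EBNA cells transiently expressing the human receptor were incubated 1 h at RT with ~0.7 nM (D2) or 0.5 nM (D3) [3H]-spiperone, or 1.1 nM [3H]-ketanserin (5-HT2A), plus ten compound concentrations (10 μM–0.1 nM). Nonspecific binding was set with 10 μM spiperone; Ki was derived from IC50 via Cheng-Prusoff.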

human D3 receptor = human D3 receptor (Homo sapiens (Human), UniProt P35462); assay: Radioligand binding ([3H]-spiperone) to human D3 receptor, HEK293 EBNA membranes; conditions: HEK293 EBNA cells expressing human D3 receptor
Method in brief: as §1

Sequence of human D3 receptor (P35462 whole entry): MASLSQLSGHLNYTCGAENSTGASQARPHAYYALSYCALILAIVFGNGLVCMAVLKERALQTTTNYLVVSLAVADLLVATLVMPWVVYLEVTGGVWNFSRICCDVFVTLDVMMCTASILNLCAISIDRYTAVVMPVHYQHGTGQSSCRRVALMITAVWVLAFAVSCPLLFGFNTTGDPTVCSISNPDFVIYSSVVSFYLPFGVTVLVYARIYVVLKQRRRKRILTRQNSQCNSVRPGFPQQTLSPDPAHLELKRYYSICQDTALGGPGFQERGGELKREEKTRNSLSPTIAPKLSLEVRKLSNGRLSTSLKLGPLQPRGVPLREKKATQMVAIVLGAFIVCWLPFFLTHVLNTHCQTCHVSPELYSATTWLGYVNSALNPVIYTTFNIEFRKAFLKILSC
Sequence of human D2 receptor (P14416 whole entry): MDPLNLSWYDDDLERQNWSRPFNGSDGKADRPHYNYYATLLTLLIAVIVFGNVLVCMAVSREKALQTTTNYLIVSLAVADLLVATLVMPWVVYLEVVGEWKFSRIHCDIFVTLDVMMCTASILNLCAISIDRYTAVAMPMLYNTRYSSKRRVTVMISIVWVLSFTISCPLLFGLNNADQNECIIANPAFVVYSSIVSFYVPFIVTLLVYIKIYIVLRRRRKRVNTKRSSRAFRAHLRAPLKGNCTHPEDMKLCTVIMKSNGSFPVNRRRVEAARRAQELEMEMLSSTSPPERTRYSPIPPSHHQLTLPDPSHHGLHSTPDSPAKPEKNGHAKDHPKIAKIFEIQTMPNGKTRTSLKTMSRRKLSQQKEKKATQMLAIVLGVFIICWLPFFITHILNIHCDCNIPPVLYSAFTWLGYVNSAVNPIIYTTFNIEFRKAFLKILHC
Sequence of human 5-HT2A receptor (P28223 whole entry): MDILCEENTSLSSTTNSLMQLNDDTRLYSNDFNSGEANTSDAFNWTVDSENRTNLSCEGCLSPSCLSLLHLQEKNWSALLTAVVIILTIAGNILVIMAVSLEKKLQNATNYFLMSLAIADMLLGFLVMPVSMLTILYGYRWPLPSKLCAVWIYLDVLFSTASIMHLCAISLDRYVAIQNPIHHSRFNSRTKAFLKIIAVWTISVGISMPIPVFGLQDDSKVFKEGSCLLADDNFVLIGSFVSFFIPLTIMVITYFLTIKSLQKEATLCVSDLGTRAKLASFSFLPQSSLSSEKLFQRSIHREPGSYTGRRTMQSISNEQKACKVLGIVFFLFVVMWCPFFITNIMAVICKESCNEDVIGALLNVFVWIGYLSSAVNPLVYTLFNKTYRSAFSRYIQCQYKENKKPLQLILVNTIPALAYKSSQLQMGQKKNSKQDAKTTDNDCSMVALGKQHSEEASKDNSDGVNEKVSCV

Row | D2 Ki (human D2 receptor) | Compound | Ki (human D2 receptor) [nM] | Ki (human 5-HT2A receptor) [nM] | Ki (human D3 receptor) [nM] | melting point [°C]
1 | – | CC(C)Cc1ccc(C(=O)N[C@H]2CC[C@H](CCN3CCC(c4coc5ccccc45)CC3)CC2)cc1 [Example 80, trans-N-{4-[2-(4-Benzofuran-3-yl-piperidin-1-yl)-ethyl]-cyclohexyl}-4-isobutyl-benzamide] | 292 | 2.69 | 4.16 | 190
2 | – | CCc1ccc(C(=O)N[C@H]2CC[C@H](CCN3CCC(c4coc5ccccc45)CC3)CC2)cc1 [Example 81, trans-N-{4-[2-(4-Benzofuran-3-yl-piperidin-1-yl)-ethyl]-cyclohexyl}-4-ethyl-benzamide] | 204 | 2.53 | 1.33 | 192
3 | inact. | O=C(N[C@H]1CC[C@H](CCN2CCC(c3coc4ccccc34)CC2)CC1)c1ccc(C2CCCCC2)cc1 [Example 82, trans-N-{4-[2-(4-Benzofuran-3-yl-piperidin-1-yl)-ethyl]-cyclohexyl}-4-cyclohexyl-benzamide] | – | 5.81 | 41.3 | 230
4 | – | CC(C)c1ccc(C(=O)N[C@H]2CC[C@H](CCN3CCC(c4coc5ccccc45)CC3)CC2)cc1 [Example 83, trans-N-{4-[2-(4-Benzofuran-3-yl-piperidin-1-yl)-ethyl]-cyclohexyl}-4-isopropyl-benzamide] | 402 | 2.6 | 4.8 | 188
5 | – | O=C(N[C@H]1CC[C@H](CCN2CCC(c3coc4ccccc34)CC2)CC1)c1ccc(C2CC2)cc1 [Example 84, trans-N-{4-[2-(4-Benzofuran-3-yl-piperidin-1-yl)-ethyl]-cyclohexyl}-4-cyclopropyl-benzamide] | 355 | 2.15 | 14.1 | 199
6 | – | O=C(Cc1noc2ccccc12)N[C@H]1CC[C@H](CCN2CCC(c3coc4ccccc34)CC2)CC1 [Example 85, trans-2-Benzo[d]isoxazol-3-yl-N-{4-[2-(4-benzofuran-3-yl-piperidin-1-yl)-ethyl]-cyclohexyl}-acetamide] | 245 | 8.22 | 145 | 175
7 | – | CS(=O)(=O)c1ccc(C(=O)N[C@H]2CC[C@H](CCN3CCC(c4coc5ccccc45)CC3)CC2)cc1 [Example 86, trans-N-{4-[2-(4-Benzofuran-3-yl-piperidin-1-yl)-ethyl]-cyclohexyl}-4-methanesulfonyl-benzamide] | 79.5 | 5.79 | 25 | 224
8 | – | O=C(N[C@H]1CC[C@H](CCN2CCC(c3coc4ccccc34)CC2)CC1)c1ccc(Cl)cc1Cl [Example 87, trans-N-{4-[2-(4-Benzofuran-3-yl-piperidin-1-yl)-ethyl]-cyclohexyl}-2,4-dichloro-benzamide] | 38.2 | 12.3 | 4.37 | 187
9 | – | CC(C)(C)c1ccc(S(=O)(=O)N[C@H]2CC[C@H](CCN3CCC(c4coc5ccccc45)CC3)CC2)cc1 [Example 88, trans-N-{4-[2-(4-Benzofuran-3-yl-piperidin-1-yl)-ethyl]-cyclohexyl}-4-tert-butyl-benzenesulfonamide] | 70 | 31.5 | 12.1 | 171
